“And” between values parts separate entries of the source, which are not always exact repeats. Identical values can stand only once.
Tested on: VA-ES-BJ tumor spheroid viability
Assay: Anticancer human tumor VA-ES-BJ cell line growth inhibition;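 note: spheroids exposed to compounds for seven days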;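 for viability, T/C: percent of DMSO vehicle control viability so 100% = untreated growth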
Settings: spheroids with HUVEC and MSC; for viability, T/C: stronger effect = lower value
Summary of the method: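 Complex spheroids of malignant cells with endothelial cells and mesenchymal stem cells; agents alone or combined, from near clinical Cmax (or 10 microM if unknown) down in half-log steps, 0.25% DMSO final.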

[1] = curve of first compound, second compound 1 µM
[2] = curve of first compound, second compound 3.16 µM
[3] = curve of first compound, second compound 10 µM
[4] = curve of first compound, second compound 31.6 µM
[5] = curve of first compound, second compound 100 µM
[6] = second compound 1 µM, first compound 0.0316 µM
[7] = second compound 1 µM, first compound 0.1 µM
[8] = second compound 1 µM, first compound 0.316 µM
[9] = second compound 1 µM, first compound 1 µM
[10] = second compound 1 µM, first compound 3.16 µM
[11] = second compound 1 µM, first compound 10 µM
[12] = second compound 3.16 µM, first compound 0.0316 µM
[13] = second compound 3.16 µM, first compound 0.1 µM
[14] = second compound 3.16 µM, first compound 0.316 µM
[15] = second compound 3.16 µM, first compound 1 µM
[16] = second compound 3.16 µM, first compound 3.16 µM
[17] = second compound 3.16 µM, first compound 10 µM
[18] = second compound 10 µM, first compound 0.0316 µM
[19] = second compound 10 µM, first compound 0.1 µM
[20] = second compound 10 µM, first compound 0.316 µM
[21] = second compound 10 µM, first compound 1 µM
[22] = second compound 10 µM, first compound 3.16 µM
[23] = second compound 10 µM, first compound 10 µM
[24] = second compound 31.6 µM, first compound 0.0316 µM
[25] = second compound 31.6 µM, first compound 0.1 µM
[26] = second compound 31.6 µM, first compound 0.316 µM
[27] = second compound 31.6 µM, first compound 1 µM
[28] = second compound 31.6 µM, first compound 3.16 µM
[29] = second compound 31.6 µM, first compound 10 µM
[30] = second compound 100 µM, first compound 0.0316 µM
[31] = second compound 100 µM, first compound 0.1 µM
[32] = second compound 100 µM, first compound 0.316 µM
[33] = second compound 100 µM, first compound 1 µM
[34] = second compound 100 µM, first compound 3.16 µM
[35] = second compound 100 µM, first compound 10 µM

Q: With `COc1ccc([C@@H](O)c2cc(-c3ncnc4cc(N5CCOCC5)ccc34)c(F)cc2Cl)nn1` + CC[C@@]1(O)C(=O)OCc2c1cc1n(c2=O)Cc2cc3c(CN(C)C)c(O)ccc3nc2-1 as the compound, how does the IC50 (curve of first compound, second compound 0.003 µM) read?
A: 949 nM

Q: And the IC50 (curve of first compound, second compound 0.00949 µM)?
A: 612 nM

Q: And the IC50 (curve of first compound, second compound 0.03 µM)?
A: 78.7 nM

Q: And the IC50 (curve of first compound, second compound 0.0949 µM)?
A: < 31.6 nM

Q: And the IC50 (curve of first compound, second compound 0.3 µM)?
A: < 31.6 nM

Q: And the viability, T/C (second compound 0.003 µM, first compound 0.0316 µM)?
A: 94.8%

Q: What about the viability, T/C (second compound 0.003 µM, first compound 0.1 µM) of the same compound?
A: 93.4%

Q: What about the viability, T/C (second compound 0.003 µM, first compound 0.316 µM) of the same compound?
A: 71%

Q: What about the viability, T/C (second compound 0.003 µM, first compound 1 µM) of the same compound?
A: 52.6%

Q: And the viability, T/C (second compound 0.003 µM, first compound 3.16 µM)?
A: 19.9%

Q: What about the viability, T/C (second compound 0.003 µM, first compound 10 µM) of the same compound?
A: 9.59%

Q: What about the viability, T/C (second compound 0.00949 µM, first compound 0.0316 µM) of the same compound?
A: 89.4%

Q: What about the viability, T/C (second compound 0.00949 µM, first compound 0.1 µM) of the same compound?
A: 77.2%

Q: And the viability, T/C (second compound 0.00949 µM, first compound 0.316 µM)?
A: 65.4%

Q: What about the viability, T/C (second compound 0.00949 µM, first compound 1 µM) of the same compound?
A: 40.6%

Q: And the viability, T/C (second compound 0.00949 µM, first compound 3.16 µM)?
A: 15.8%

Q: What about the viability, T/C (second compound 0.00949 µM, first compound 10 µM) of the same compound?
A: 8.03%

Q: What about the viability, T/C (second compound 0.03 µM, first compound 0.0316 µM) of the same compound?
A: 51.3%

Q: What about the viability, T/C (second compound 0.03 µM, first compound 0.1 µM) of the same compound?
A: 50.9%

Q: And the viability, T/C (second compound 0.03 µM, first compound 0.316 µM)?
A: 40.5%

Q: And the viability, T/C (second compound 0.03 µM, first compound 1 µM)?
A: 26.2%

Q: What about the viability, T/C (second compound 0.03 µM, first compound 3.16 µM) of the same compound?
A: 13.8%

Q: What about the viability, T/C (second compound 0.03 µM, first compound 10 µM) of the same compound?
A: 7.2%

Q: And the viability, T/C (second compound 0.0949 µM, first compound 0.0316 µM)?
A: 8.47%

Q: What about the viability, T/C (second compound 0.0949 µM, first compound 0.1 µM) of the same compound?
A: 9.28%

Q: What about the viability, T/C (second compound 0.0949 µM, first compound 0.316 µM) of the same compound?
A: 9.08%

Q: And the viability, T/C (second compound 0.0949 µM, first compound 1 µM)?
A: 8.66%

Q: What about the viability, T/C (second compound 0.0949 µM, first compound 3.16 µM) of the same compound?
A: 7.19%

Q: And the viability, T/C (second compound 0.0949 µM, first compound 10 µM)?
A: 6.29%

Q: What about the viability, T/C (second compound 0.3 µM, first compound 0.0316 µM) of the same compound?
A: 6.47%

Q: And the viability, T/C (second compound 0.3 µM, first compound 0.1 µM)?
A: 6.18%

Q: What about the viability, T/C (second compound 0.3 µM, first compound 0.316 µM) of the same compound?
A: 7.16%

Q: And the viability, T/C (second compound 0.3 µM, first compound 1 µM)?
A: 7.21%

Q: What about the viability, T/C (second compound 0.3 µM, first compound 3.16 µM) of the same compound?
A: 6.83%

Q: What about the viability, T/C (second compound 0.3 µM, first compound 10 µM) of the same compound?
A: 6.76%

Q: For `COc1cc(C)[nH]c(=O)c1CN1CCc2c(Cl)cc(C(OC)C3COC3)c(Cl)c2C1=O` (configuration not stated) + Cn1nnc2c(C(N)=O)ncn2c1=O, which IC50 [1] is on record?
A: 9570 nM

Q: What about the IC50 [2] of the same compound?
A: > 10000 nM

Q: What about the IC50 [3] of the same compound?
A: 3260 nM

Q: And the IC50 [4]?
A: 3360 nM

Q: What about the IC50 [5] of the same compound?
A: 2220 nM

Q: What about the viability, T/C [6] of the same compound?
A: 94%

Q: And the viability, T/C [7]?
A: 88.8%

Q: What about the viability, T/C [8] of the same compound?
A: 72.2%

Q: What about the viability, T/C [9] of the same compound?
A: 61.4%

Q: And the viability, T/C [10]?
A: 54%

Q: And the viability, T/C [11]?
A: 49%

Q: What about the viability, T/C [12] of the same compound?
A: 97.6%

Q: And the viability, T/C [13]?
A: 85.8%

Q: And the viability, T/C [14]?
A: 70.8%

Q: And the viability, T/C [15]?
A: 60.3%

Q: What about the viability, T/C [16] of the same compound?
A: 56.1%

Q: What about the viability, T/C [17] of the same compound?
A: 49.5%

Q: And the viability, T/C [18]?
A: 89%

Q: What about the viability, T/C [19] of the same compound?
A: 87.2%

Q: And the viability, T/C [20]?
A: 71.6%

Q: What about the viability, T/C [21] of the same compound?
A: 58.4%

Q: And the viability, T/C [22]?
A: 52.4%

Q: What about the viability, T/C [23] of the same compound?
A: 45.2%

Q: What about the viability, T/C [24] of the same compound?
A: 95.5%

Q: What about the viability, T/C [25] of the same compound?
A: 85.4%

Q: And the viability, T/C [26]?
A: 68.9%

Q: And the viability, T/C [27]?
A: 56.8%

Q: And the viability, T/C [28]?
A: 51.9%

Q: And the viability, T/C [29]?
A: 46%

Q: What about the viability, T/C [30] of the same compound?
A: 106%

Q: What about the viability, T/C [31] of the same compound?
A: 90.2%

Q: What about the viability, T/C [32] of the same compound?
A: 75.1%

Q: What about the viability, T/C [33] of the same compound?
A: 53.8%

Q: And the viability, T/C [34]?
A: 48.7%

Q: And the viability, T/C [35]?
A: 42.7%

Q: `Cc1sc2c(c1C)C(c1ccc(Cl)cc1)=NC(CC(=O)Nc1ccc(O)cc1)c1nnc(C)n1-2` (configuration not stated) was tested. Which viability, T/C (compound 0.00949 µM) did it give?
A: 72.1% and 86.4% and 77.2%

Q: What about the viability, T/C (compound 0.03 µM) of the same compound?
A: 66.8% and 59.2% and 64.1%

Q: And the viability, T/C (compound 0.0949 µM)?
A: 47.3% and 45% and 46.2%

Q: And the viability, T/C (compound 0.3 µM)?
A: 30.5% and 32.6% and 28.8%

Q: And the viability, T/C (compound 0.949 µM)?
A: 25.7% and 24.2% and 20.7%

Q: What about the viability, T/C (compound 3 µM) of the same compound?
A: 18.6% and 22.5% and 15.8%

Q: And the IC50 (curve of compound)?
A: 84.1 nM and 60.9 nM and 73.1 nM

Q: Which results are given for `[2H]c1nc(C)nc([2H])c1-c1cc(NC[C@@H](C)c2cccc3c(C(=O)NC)ccnc23)ncn1` + Cn1nnc2c(C(N)=O)ncn2c1=O?
A: IC50 [1]: > 10000 nM; IC50 [2]: > 10000 nM; IC50 [3]: > 10000 nM; IC50 [4]: > 10000 nM; IC50 [5]: > 10000 nM; viability, T/C [6]: 108%; viability, T/C [7]: 105%; viability, T/C [8]: 106%; viability, T/C [9]: 94.7%; viability, T/C [10]: 95.8%; viability, T/C [11]: 92.5%; viability, T/C [12]: 111%; viability, T/C [13]: 90.1%; viability, T/C [14]: 90.2%; viability, T/C [15]: 91.1%; viability, T/C [16]: 98.3%; viability, T/C [17]: 97%; viability, T/C [18]: 111%; viability, T/C [19]: 94.6%; viability, T/C [20]: 97.5%; viability, T/C [21]: 101%; viability, T/C [22]: 94.1%; viability, T/C [23]: 95.6%; viability, T/C [24]: 114%; viability, T/C [25]: 103%; viability, T/C [26]: 105%; viability, T/C [27]: 99.2%; viability, T/C [28]: 89.4%; viability, T/C [29]: 85.6%; viability, T/C [30]: 103%; viability, T/C [31]: 102%; viability, T/C [32]: 107%; viability, T/C [33]: 104%; viability, T/C [34]: 99.9%; viability, T/C [35]: 96%
